Tests used:
[1] = test system: MDA-MB-435; assay: NCI human tumor cell panel: MDA-MB-435 (Breast Cancer); assay type: cell-based
[2] = test system: NCI-H522; assay: NCI human tumor cell panel: NCI-H522 (Non-Small Cell Lung Cancer)
[3] = test system: NCI-H23; assay: NCI human tumor cell panel: NCI-H23 (Non-Small Cell Lung Cancer); assay type: cell-based; details: NCI-H23, read-out: Log10 GI50 (converted)
[4] = test system: NCI-H460; assay: NCI human tumor cell panel: NCI-H460 (Non-Small Cell Lung Cancer); assay type: cell-based
[5] = test system: IGROV1; assay: NCI human tumor cell panel: IGROV1 (Ovarian Cancer); assay type: cell-based
[6] = test system: U251; assay: NCI human tumor cell panel: U251 (CNS Cancer); assay type: cell-based
[7] = test system: MCF7/ADR-RES; assay: NCI human tumor cell panel: MCF7/ADR-RES (Breast Cancer); assay type: cell-based
[8] = test system: LOX IMVI; assay: NCI human tumor cell panel: LOX IMVI (Melanoma); assay type: cell-based
[9] = test system: HS 578T; assay: NCI human tumor cell panel: HS 578T (Breast Cancer); assay type: cell-based
[10] = test system: UO-31; assay: NCI human tumor cell panel: UO-31 (Renal Cancer); assay type: cell-based
[11] = test system: HCT-15; assay: NCI human tumor cell panel: HCT-15 (Colon Cancer); assay type: cell-based
[12] = test system: SK-MEL-2; assay: NCI human tumor cell panel: SK-MEL-2 (Melanoma); assay type: cell-based
[13] = test system: HOP-62; assay: NCI human tumor cell panel: HOP-62 (Non-Small Cell Lung Cancer); assay type: cell-based
[14] = test system: TK-10; assay: NCI human tumor cell panel: TK-10 (Renal Cancer); assay type: cell-based
[15] = test system: PC-3; assay: NCI human tumor cell panel: PC-3 (Prostate Cancer); assay type: cell-based
[16] = test system: BT-549; assay: NCI human tumor cell panel: BT-549 (Breast Cancer); assay type: cell-based
[17] = test system: SK-MEL-28; assay: NCI human tumor cell panel: SK-MEL-28 (Melanoma); assay type: cell-based
[18] = test system: SNB-75; assay: NCI human tumor cell panel: SNB-75 (CNS Cancer); assay type: cell-based
[19] = test system: HCC-2998; assay: NCI human tumor cell panel: HCC-2998 (Colon Cancer); assay type: cell-based
[20] = test system: NCI-H322M; assay: cells; assay type: cell-based; details: Homo sapiens
[21] = test system: HT29; assay: NCI human tumor cell panel: HT29 (Colon Cancer); assay type: cell-based
[22] = test system: SR; assay: NCI human tumor cell panel: SR (Leukemia); assay type: cell-based
[23] = test system: MDA-N; assay: NCI human tumor cell panel: MDA-N (Breast Cancer); assay type: cell-based
[24] = test system: SF-539; assay: NCI human tumor cell panel: SF-539 (CNS Cancer); assay type: cell-based
[25] = test system: SNB-19; assay: NCI human tumor cell panel: SNB-19 (CNS Cancer); assay type: cell-based; details: SNB-19, read-out: Log10 GI50 (converted)
[26] = test system: SF-295; assay: NCI human tumor cell panel: SF-295 (CNS Cancer); assay type: cell-based; details: SF-295, read-out: Log10 GI50 (converted)
[27] = test system: OVCAR-5; assay: NCI human tumor cell panel: OVCAR-5 (Ovarian Cancer); assay type: cell-based
[28] = test system: M14; assay: NCI human tumor cell panel: M14 (Melanoma); assay type: cell-based
[29] = test system: OVCAR-4; assay: NCI human tumor cell panel: OVCAR-4 (Ovarian Cancer); assay type: cell-based; details: OVCAR-4, read-out: Log10 GI50 (converted)
[30] = test system: HOP-92; assay: NCI human tumor cell panel: HOP-92 (Non-Small Cell Lung Cancer)
[31] = test system: 786-0; assay: NCI human tumor cell panel: 786-0 (Renal Cancer); assay type: cell-based; details: 786-0, read-out: Log10 TGI (converted)
[32] = test system: EKVX; assay: NCI human tumor cell panel: EKVX (Non-Small Cell Lung Cancer); assay type: cell-based
[33] = read-out: Log10 GI50 (converted)
[34] = read-out: Log10 TGI (converted)

O=Cc1ccc(-c2ccc(-c3ccc(C=O)[se]3)s2)s1 [compound 688829]
GI50 ([1]; MDA-MB-435, read-out: Log10 GI50 (converted)): 33.1 µM
IC (TGI) ([1]; MDA-MB-435, read-out: Log10 TGI (converted)): > 100 µM
GI50 ([2]; NCI-H522, read-out: Log10 GI50 (converted)): 11.2 µM
IC (TGI) ([2]; NCI-H522, read-out: Log10 TGI): 39.8 µM
GI50 [3]: > 100 µM
GI50 ([4]; NCI-H460, read-out: Log10 GI50 (converted)): 0.141 µM
IC (TGI) ([4]; NCI-H460, read-out: Log10 TGI (converted)): > 100 µM
GI50 ([5]; IGROV-1, IGROV1, read-out: Log10 GI50 (converted)): 0.178 µM
IC (TGI) ([5]; IGROV-1, IGROV1, read-out: Log10 TGI (converted)): 2.45 µM
GI50 ([6]; U-251, U251, read-out: Log10 GI50 (converted)): 0.245 µM
IC (TGI) ([6]; U-251, U251, read-out: Log10 TGI (converted)): 25.7 µM
GI50 [7, 33]: 30.2 µM
IC (TGI) [7, 34]: > 100 µM
GI50 [8, 33]: 16.6 µM
IC (TGI) [8, 34]: > 100 µM
GI50 [9, 33]: 2.88 µM
IC (TGI) [9, 34]: > 100 µM
GI50 ([10]; UO-31, read-out: Log10 GI50 (converted)): > 100 µM
IC (TGI) ([10]; UO-31, read-out: Log10 TGI (converted)): > 100 µM
GI50 ([11]; HCT-15, read-out: Log10 GI50 (converted)): 22.9 µM
IC (TGI) ([11]; HCT-15, read-out: Log10 TGI (converted)): > 100 µM
GI50 ([12]; SK-MEL-2, read-out: Log10 GI50 (converted)): 33.9 µM
IC (TGI) ([12]; SK-MEL-2, read-out: Log10 TGI (converted)): > 100 µM
GI50 ([13]; HOP-62, read-out: Log10 GI50 (converted)): 0.251 µM
IC (TGI) ([13]; HOP-62, read-out: Log10 TGI (converted)): 15.8 µM
GI50 ([14]; TK-10, read-out: Log10 GI50 (converted)): 0.0282 µM
IC (TGI) ([14]; TK-10, read-out: Log10 TGI (converted)): 0.209 µM
GI50 ([15]; PC-3, read-out: Log10 GI50 (converted)): 28.2 µM
IC (TGI) ([15]; PC-3, read-out: Log10 TGI (converted)): > 100 µM
GI50 ([16]; BT-549, read-out: Log10 GI50 (converted)): 56.2 µM
IC (TGI) ([16]; BT-549, read-out: Log10 TGI (converted)): > 100 µM
GI50 ([17]; SK-MEL-28, read-out: Log10 GI50 (converted)): 66.1 µM
IC (TGI) ([17]; SK-MEL-28, read-out: Log10 TGI (converted)): > 100 µM
GI50 ([18]; SNB-75, read-out: Log10 GI50 (converted)): 75.9 µM
IC (TGI) ([18]; SNB-75, read-out: Log10 TGI (converted)): > 100 µM
GI50 ([19]; HCC-2998, read-out: Log10 GI50 (converted)): 0.389 µM
IC (TGI) ([19]; HCC-2998, read-out: Log10 TGI (converted)): > 100 µM
GI50 [20, 33]: 27.5 µM
IC (TGI) [20, 34]: 89.1 µM
GI50 ([21]; HT-29, HT29, read-out: Log10 GI50 (converted)): 23.4 µM
IC (TGI) ([21]; HT-29, HT29, read-out: Log10 TGI (converted)): > 100 µM
GI50 [22, 33]: 24.5 µM
IC (TGI) [22, 34]: 72.4 µM
GI50 [23, 33]: 20.9 µM
IC (TGI) [23, 34]: > 100 µM
GI50 ([24]; SF-539, read-out: Log10 GI50 (converted)): 27.5 µM
IC (TGI) ([24]; SF-539, read-out: Log10 TGI (converted)): > 100 µM
GI50 [25]: > 100 µM
GI50 [26]: > 100 µM
GI50 ([27]; OVCAR-5, read-out: Log10 GI50 (converted)): 0.123 µM
IC (TGI) ([27]; OVCAR-5, read-out: Log10 TGI (converted)): 0.501 µM
GI50 ([28]; M14, read-out: Log10 GI50 (converted)): 20 µM
IC (TGI) ([28]; M14, read-out: Log10 TGI (converted)): > 100 µM
GI50 [29]: 0.186 µM
GI50 ([30]; HOP-92, read-out: Log10 GI50 (converted)): 97.7 µM
IC (TGI) ([30]; HOP-92, read-out: Log10 TGI): > 100 µM
IC (TGI) [31]: 26.9 µM
GI50 [32, 33]: > 100 µM
IC (TGI) [32, 34]: > 100 µM
